The source of these data is patent US20120015939A1, “TOPICAL TREATMENT OF NEUROPATHIC PAIN AND METHODS OF DIAGNOSIS” (Arcion Therapeutics, Inc., priority 2010, published 2012).

One data set in a line: clinical. The note with it: human, in vivo. The text has this:
In study CLO-027, blood samples for PK analysis were obtained at baseline, and at Weeks 2 and 12 of treatment.

The conditions of data set [1]: topical 0.1% and 0.2% clonidine. The protocol: The dosage formulation is administered from once a day to several times a day, depending on the patient. […] The dose is determined by the region of pain. […] The area treated is constrained by the systemic dosing.
Data set [2] has as its system pain associated with painful diabetic neuropathy (PDN).
Protocol: Pain was assessed each day using a pain diary using a standardized numerical pain rating scale (NPRS). The average pain for each week was calculated and the difference from baseline was determined (week x minus baseline). […] The baseline pain scores were imputed for missing data arising from premature withdrawal from the study (BOCF, baseline observation carried forward).
Capsaicin 0.1% was applied to the pretibial area between the knee and ankle in each patient. The area was occluded for 30 minutes, at which time patients rated the painfulness of the capsaicin stimulus. It was reasoned that in patients with PDN that the afferented group would detect and rate the capsaicin stimulus as painful, while the deafferented group would fail to detect the stimulus.
Data set [3] has as its system painful diabetic neuropathy. The note with it: systemic clonidine by transdermal patches; cross-over; cited from earlier work.
For data set [4], the system named is painful diabetic neuropathy. The note with it: cited from earlier work.
The conditions of data set [5]: in vivo; cited from earlier work.

Read-outs that look alike come from different tables or passages of the source.

For the compound `Clc1cccc(Cl)c1N=C1NCCN1` [clonidine], the concentration at 2 weeks in the data set “clinical” worked out at 0.017 ng/mL. Besides, the concentration at 12 weeks in “clinical” was found to be 0.019 ng/mL. Besides, the Mean blood level entry in data set [1] is recorded as “below 0.1 ng/mg”. The “Patients with no detectable clonidine in the blood” value in data set [1] was “one third of patients had no detectable clonidine in the blood”. The “Efficacy over placebo in relieving diabetic pain (change in NPRS over time)” value was “significantly superior to placebo” in data set [2] (capsaicin pain rating of two or more, 0 to 10 scale (FIG. 4C)); “no efficacy over placebo” in data set [2] (patients who did not detect the capsaicin stimulus (FIG. 4A)); “significantly superior to placebo” in data set [2] (subjects who detected capsaicin, pain rating > 0 (FIG. 4B)). Also, the “Difference in pain between clonidine patches and placebo patches” value in data set [3] is reported as “no statistically significant difference”. In addition, the “Pain reduction relative to placebo” value in data set [4] (responders rechallenged at highest patch dosage, p<0.015) is “modest although statistically significant”. The “Patients considered clonidine responders” value in data set [4] (twelve of forty-one patients who completed the initial course of treatment) was 29%. Moreover, in data set [5], the “Lower threshold blood level considered necessary to treat hypertension” value was 0.200 ng/mL.
